# Measured values published in patent publication US12281084B2, “Acetyl-CoA synthetase 2 (ACSS2) inhibitors and methods using same” (The Wistar Institute, priority 2019, dated 2025).
# “Also recorded” adds a separate entry of the source.
# Test system: BT474 tumors
# Test: BT474 tumor xenograft growth in NSG mice
# Assay type: in vivo, mouse
# Protocol: For BT474 mouse xenograft studies 5-6 week old female NSG […] were anesthetized and one 17β-estradiol 60 day release pellet (Innovative Research of America Cat. No. SE-121) was injected subcutaneously via 10 gauge precision trochar into the lateral side of the neck between the ear and shoulder. 24 hours later 10^5 BT474 luciferase positive cells in 100 μl PBS:matrigel (growth factor reduced) were injected subcutaneously into the hind limb. For A7C11 and Brpkp110 xenografts, 5×10^5 cells in 100 μl PBS:Matrigel (growth factor reduced Corning Cat. No. 356231) were subcutaneously injected into the hindlimb of 5-6 week old female NSG mice […]. Following tumor establishment in all groups, mice were randomized and treated intraperitoneally (IP) daily with vehicle (10% DMSO, 10% absolute ethanol, 20% solutol, 60% water containing 0.5% Tween20) or 100 mg/kg VY-3-135 as indicated in the figure legend. Tumors were measured thrice weekly via caliper measurement and tumor volume calculated as (L×W^2)/2 (where L is the longer of the 2 measurements). […]
# Mice bearing luciferase positive tumors were injected IP with 150 mg/kg sterile filtered D-luciferin potassium salt (Gold Bio Cat. No. LUCK-1G). […] Images were analyzed using Living Image Software (Perkin Elmer). […]
compound,measurement,setting,value
"CCn1c(C(O)(c2ccccc2)c2ccccc2)nc2ccc(C(=O)NC[C@@H](C)O)cc21 [VY-3-135, (R)-1-ethyl-2-(hydroxydiphenylmethyl)-N-(2-hydroxypropyl)-1H-benzo[d]imidazole-6-carboxamide]",tumor palpability / regression at end of regimen,"BT474 luciferase tumors, VY-3-135 treated group","two of the tumors in VY-3-135 treated group were not palpable by the end of the regimen, with one tumor fully regressing"
same,BT474 tumor growth,"VY-3-135 100 mg/kg IP daily, two weeks of treatment (FIG. 6A), 100 mg/kg",causes a significant decrease in BT474+luciferase tumor growth; also recorded: completely abrogated tumor growth
